Measured values reported in ChEMBL document CHEMBL1150458, “A highly potent series of fluoroalkyl benzoxazine pyridine-N-oxide potassium channel openers” (Bioorg Med Chem Lett, 1993).

Assays:
Assay type in all cases: functional
Cavia porcellus [1] = species: Cavia porcellus; test: The compound was tested for hypotensive activity against guinea pig detrusor (bladder) strip mildly depolarized with 15 mM KCl
Cavia porcellus [2] = species: Cavia porcellus; test: Tested for percent increase of efflux rate constant of 0.233 uM of compound using guinea pig detrusor
Cavia porcellus [3] = species: Cavia porcellus; test: The compound was tested for hypotensive activity against guinea pig vascular tissue (portal vein) strip mildly depolarized with 15 mM KCl
Rattus norvegicus = test: Tested for lowering of blood pressure in spontaneously hypertensive rat model upon oral administration at 5 ug/kg

For `CC1(C(F)(F)F)CN(c2cccc[n+]2[O-])c2cc(S(=O)(=O)c3ccccc3)ccc2O1` (racemic), the IC50 (Cavia porcellus [1]) was 540 pM.

`C[C@]1(C(F)(F)F)CN(c2cccc[n+]2[O-])c2cc(S(=O)(=O)c3ccccc3)ccc2O1` was tested, and the IC50 (Cavia porcellus [1]) was 680 pM.

For `O=[N+]([O-])c1ccc2c(c1)N(c1cccc[n+]1[O-])CC(C(F)F)(C(F)F)O2`, the Increase (Cavia porcellus [2]) was 40.5%, the IC50 (Cavia porcellus [3]) was 600 pM and the Blood pressure (Rattus norvegicus) was 35 mmHg.

Work on `CC1(C)CN(c2cccc[n+]2[O-])c2cc(S(=O)(=O)c3ccccc3)ccc2O1` yielded an IC50 (Cavia porcellus [1]) of 4100 pM.

`CC1(C)CN(c2cccc[n+]2[O-])c2cc([N+](=O)[O-])ccc2O1` gave an IC50 (Cavia porcellus [1]) of 74000 pM.

With `C[C@@]1(C(F)(F)F)CN(c2cccc[n+]2[O-])c2cc(S(=O)(=O)c3ccccc3)ccc2O1` the IC50 (Cavia porcellus [1]) was 280 pM.
